Format in all cases: in vivo
Data set [1] deals with entireleaf morningglory (Ipomoea hederacea var. integriuscula). In words: Test Example 1: foliar treatment on upland fields. Particulars: 500 g/ha active ingredient; foliar spray; examined 19 days after application. How it is done:
(§1) Cylindrical plastic pots of 10 cm in diameter and 10 cm in depth were filled with soil, in which the seeds of […] (Ipomoea hederacea var. integriuscula) and velvetleaf (Abutilon theophrash) were sowed, and the test plants were grown in a greenhouse for 19 days. Each of the test compounds listed below was formulated into an emulsifiable concentrate according to Formulation Example 2, which was diluted with water containing a spreading agent to a prescribed concentration. The dilution was uniformly sprayed over the foliage of the test plants with a sprayer at a volume of 1000 liters per hectare. After the application, the test plants were grown in the greenhouse for 19 days, and the herbicidal activity was examined.

Data set [2] deals with velvetleaf (Abutilon theophrash). In words: Test Example 1: foliar treatment on upland fields. The note with it: 500 g/ha active ingredient; foliar spray; examined 19 days after application. Here is the method:
as §1

For data set [3], the system named is barnyardgrass (Echinochloa crus-galli). Put plainly: Test Example 2: foliar treatment on upland fields. Set-up: key: rating; 4–5 = excellent activity, 3 or lower = insufficient. Particulars: 32 g/ha active ingredient; foliar spray; examined 19 days after application. The text has this:
(§2) The herbicidal activity is excellent when rated at “4” or “5” but insufficient when rated at “3” or lower. The phytotoxicity is no problematic on practical use when rated at “0” or “1” but not allowed when rated at “2” or higher.
(§3) Cylindrical plastic pots of 10 cm in diameter and 10 cm in depth were filled with soil, in which the seeds of barnyardgrass (Echinochloa crus-galli), entireleaf morningglory (Ipomoea hederacea var. integriuscula) and velvetleaf (Abutilon theophrash) were sowed, and the test plants were grown in a greenhouse for 19 days. Each of the test compounds listed below was formulated into an emulsifiable concentrate according to Formulation Example 2, which was diluted with water containing a spreading agent to a prescribed concentration. The dilution was uniformly sprayed over the foliage of the test plants with a sprayer at a volume of 1000 liters per hectare. After the application, the test plants were grown in the greenhouse for 19 days, and the herbicidal activity was examined.

Data set [4] deals with entireleaf morningglory (Ipomoea hederacea var. integriuscula). Put plainly: Test Example 2: foliar treatment on upland fields. Particulars: 32 g/ha active ingredient; foliar spray; examined 19 days after application. Set-up: key: rating; 4–5 = excellent activity, 3 or lower = insufficient.
Description: as §2, §3

Data set [5] concerns velvetleaf (Abutilon theophrash). Put plainly: Test Example 2: foliar treatment on upland fields. Set-up: key: rating; 4–5 = excellent activity, 3 or lower = insufficient. The note with it: 32 g/ha active ingredient; foliar spray; examined 19 days after application.
Description: as §2, §3

Data set [6] has as its system entireleaf morningglory (Ipomoea hederacea var. integriuscula). Put plainly: Test Example 3: soil surface treatment on upland fields. The note with it: 500 g/ha active ingredient; soil surface spray; examined after 19 days. How it is done: (§4) Cylindrical plastic pots of 10 cm in diameter and […] in depth were filled with soil, in which the seeds of […] (Ipomoea hederacea var. integriuscula) and velvetleaf (Abutilon theophrash) were sowed. Each of the test compounds listed below was formulated into an emulsifiable concentrate according to Formulation Example 2, which was diluted with water to a prescribed concentration. The dilution was uniformly sprayed over the soil surface in the pots with a sprayer at a volume of 1000 liters per hectare. After the application, the test plants were grown in a greenhouse for 19 days, and the herbicidal activity was examined.

In data set [7] the test system is velvetleaf (Abutilon theophrash). Described as above. The note with it: 500 g/ha active ingredient; soil surface spray; examined after 19 days. How it is done: as §4
Data set [8] has as its system soybean (Glycine max). In words: Test Example 5: foliar treatment on upland fields (phytotoxicity). The note with it: 63 g/ha active ingredient; foliar spray; 18 days after application.
Description: as §2
(§5) Plastic pots of 25×18 cm^2 in area and 7 cm in depth were filled with soil, in which the seeds of soybean (Glycine max), corn (Zea mays), entireleaf morningglory (Ipomoea hederacea var. integriuscula), common cocklebur (Xanthium pensylvanicum), common ragweed (Ambrosia artemisiifolia), and common lambsquarters (Chenopodium album) were sowed, and the test plants were grown for 16 days. Each of the test compounds listed below was formulated into an emulsifiable concentrate according to Formulation Example 2, which was diluted with water to a prescribed concentration. The dilution was uniformly sprayed over the foliage of the test plants with a sprayer at a volume of 1000 liters per hectare. At this time, the unfavorable weeds and crop plants, although their growth state was different depending upon the weed species, were at the 1- to 4-leaf stage, and the plant height was 5 to 20 cm. After 18 days from the application, the herbicidal activity and phytotoxicity were examined. This test was made in a greenhouse over the entire period.

For data set [9], the system named is corn (Zea mays). The data set is described as above. Particulars: 63 g/ha active ingredient; foliar spray; 18 days after application.
Description: as §2, §5

Data set [10] has as its system common cocklebur (Xanthium pensylvanicum). Put plainly: Test Example 5: foliar treatment on upland fields. The note with it: 63 g/ha active ingredient; foliar spray; 18 days after application.
Description: as §2, §5

The test system of data set [11] is entireleaf morningglory (Ipomoea hederacea var. integriuscula). In words: Test Example 5: foliar treatment on upland fields. Particulars: 63 g/ha active ingredient; foliar spray; 18 days after application.
Description: as §2, §5

Data set [12] concerns common lambsquarters (Chenopodium album). In words: Test Example 5: foliar treatment on upland fields. Particulars: 63 g/ha active ingredient; foliar spray; 18 days after application.
Description: as §2, §5

Data set [13] relates to common ragweed (Ambrosia artemisiifolia). Put plainly: Test Example 5: foliar treatment on upland fields. Particulars: 63 g/ha active ingredient; foliar spray; 18 days after application.
Description: as §2, §5

For data set [14], the system named is barnyardgrass (Echinochloa oryzicola). Put plainly: Test Example 4: flooding treatment on paddy fields. Particulars: application amount of active ingredient 250 g/ha, examined 19 days after application, index 0 to 5. How it is done: Cylindrical plastic pots of 9 cm in diameter and 11 cm in depth were filled with soil, in which the seeds of barnyardgrass (Echinochloa oryzicola) were sowed. These pots were flooded to form a paddy field, and the test plants were grown in a greenhouse for 7 days. Each of the test compounds listed below was formulated into an emulsifiable concentrate according to Formulation Example 2, which was diluted with water to a prescribed concentration. The dilution was applied to the water surface in the pots at a volume of 50 liters per hectare. After the application, the test plants were grown in the greenhouse for 19 days, and the herbicidal activity was examined.

Regarding “Pentyl 2-chloro-4-fluoro-5-(4-methyl-5-trifluoromethyl-3-pyridazinon-2-yl) phenoxyacetate [Compound 1-499]”, the “Herbicidal activity Entireleaf morningglory” value in data set [1], in data set [4] and in [6] was 5 throughout. The “Herbicidal activity Velvetleaf” value in data set [2], in data set [5] and in [7] was 5 each time. Also, the “Herbicidal activity Barnyardgrass” value in data set [3] and in data set [14] was 5 throughout. The “Herbicidal activity and phytotoxicity Soybean” value in data set [8] turned out to be 1. Moreover, the “Herbicidal activity and phytotoxicity Corn” value in data set [9] is on record as 1. In [10], the “Herbicidal activity and phytotoxicity Common cocklebur” value was 5. The “Herbicidal activity and phytotoxicity Entireleaf morningglory” value in [11] is reported as 5. In addition, the “Herbicidal activity and phytotoxicity Common lambsquarters” value in data set [12] is 4. The “Herbicidal activity and phytotoxicity Common ragweed” value in data set [13] amounted to 5.

The values above are taken from US6869913B1, “Pyridazin-3-one derivatives, their use and intermediates for their production” (Sumitomo Chemical Company, Limited, priority 1995, dated 2005).
